# Where no end group is shown, it is not given here. [ ]: non-standard residue; d: D form. The star is where a group is joined. Stearoyl = CCCCCCCCCCCCCCCCCC(=O)*; Nle = CCCC[C@H](N)C(=O)O
# B1: (N-Stearyl-Norleucine17) VIPhybrid (peptide)
# peptide: Stearoyl-KPRRPYTDNYTRLRKQ[Nle]AVKKYLNSILN-NH2
# SMILES: CCCCCCCCCCCCCCCCCC(=O)N[C@@H](CCCCN)C(=O)N1CCC[C@H]1C(=O)N[C@@H](CCCNC(=N)N)C(=O)N[C@@H](CCCNC(=N)N)C(=O)N1CCC[C@H]1C(=O)N[C@@H](Cc1ccc(O)cc1)C(=O)N[C@H](C(=O)N[C@@H](CC(=O)O)C(=O)N[C@@H](CC(N)=O)C(=O)N[C@@H](Cc1ccc(O)cc1)C(=O)N[C@H](C(=O)N[C@@H](CCCNC(=N)N)C(=O)N[C@@H](CC(C)C)C(=O)N[C@@H](CCCNC(=N)N)C(=O)N[C@@H](CCCCN)C(=O)N[C@@H](CCC(N)=O)C(=O)N[C@@H](CCCC)C(=O)N[C@@H](C)C(=O)N[C@H](C(=O)N[C@@H](CCCCN)C(=O)N[C@@H](CCCCN)C(=O)N[C@@H](Cc1ccc(O)cc1)C(=O)N[C@@H](CC(C)C)C(=O)N[C@@H](CC(N)=O)C(=O)N[C@@H](CO)C(=O)N[C@H](C(=O)N[C@@H](CC(C)C)C(=O)N[C@@H](CC(N)=O)C(N)=O)[C@@H](C)CC)C(C)C)[C@@H](C)O)[C@@H](C)O
# notes: Synthetic lipophilic VIP antagonist; also called (SN)VIPhybrid; SNVIPhybrid
# Columns and labels:
# [1] = test system: NCI-H727 non-small cell lung cancer (carcinoid); assay: MTS cell proliferation assay, SNH and chemotherapy; format: cell-based; conditions: for reduction of the IC50 of the chemotherapeutic agent by SNH: 5 μM SNH, NCI-H727; for nature of the combined effect with SNH: combination with SNH
# Procedure: NCI-H727 and LNCaP were grown in RPMI 1640 medium supplemented with 10% heat inactivated FCS, L-glutamine and antibiotics. HT-29 and CT-26 were grown in DMEM medium supplemented with 10% heat-inactivated FCS (fetal calf serum), L-glutamine and antibiotics. The cells were cultured in 5% CO2/95% air at […] and used during their exponential growth phase. Routinely, the cells which are adherent, were split when a subconfluent monolayer was formed. In different experiments, various concentration of FCS were used. For growth inhibition experiments, subconfluent adherent cells were washed with PBS and treated with trypsin/versene. The cells were pelleted and resuspended in medium to a final concentration of 75,000 cells/mL for NCI-H727. 50,000 cells/mL for LNCaP and HT-29 and 25000 cells/mL for CT-26. These different concentrations were used in order to avoid confluence in the wells at the end of the experiment and correspond to the different doubling times of the cell lines. On day 0, cells suspensions […] were dispensed using a multi-channel pipet into the individual wells of a 96-well tissue culture plate (Nuncion, Nunc Brand Products). […] Cells were incubated for 24 hours in a humidified atmosphere of 95% air/5% CO2 at 37° C. before treatment. On day 1, the cells were treated with different drugs and schedules and maintained under the same conditions. On day 4, viable cell number was determined by a modified MTT assay i.e., MTS non-radioactive cell proliferation assay (Promega). […] Results were finally expressed as percentage of the control, which was obtained from the samples with no drug treatment. Dose-response curves were plotted using a Sigma-Plot software and statistically analyzed using Student test. To determine the effect of the lipophilic VIP antagonist SNH on cell proliferation, cells plated in 96-well microplates for 24 hours as described, were treated with various concentrations of SNH. The peptide was diluted in PBS and […] of the peptide solution was added to each well for a final concentration of the peptide between 10^−510^−9 M. The solvent was added to the control wells. […] A dose-response curve was obtained at concentrations ranging from 2 μM-10 μM (see, FIG. 2). […] The effects of an 8 hours treatment were slightly less, showing that most of the effect is in the initial hours of exposure and much more dose than time dependent. […] For the experiments with the combinations of VIP antagonists and chemotherapeutic agents, on day 0, the cells were plated for 24 hours in medium supplemented with 5% FCS. On day 1, the peptide was added to the wells followed 1 hour later by the chemotherapeutic agents. […] The chemotherapeutic drugs were tested over 7 concentrations, covering as much as possible of the dose response curve of each individual drug. 24 hours later, the medium was exchanged and the cells incubated under the same conditions for another 48 hours. On day 4 the number of viable cells was determined by MTS assay.
# [2] = test system: cell lines derived from colon cancer and prostate cancer; assay: MTS colorimetric proliferation assay, VIP antagonist with chemotherapeutic agents (Example I); format: cell-based; conditions: combination with stearyl-Nle17-neurotensis 6-11 VIP 7-28
# Procedure: Assays were performed with cell lines derived from colon cancer and prostate cancer. Proliferation was assessed using the MTS colorimetric assay of mitochondrial function for living cells. The VIP antagonist (stearyl-Nle17-neurotensis 6-11 VIP 7-28) was used.
# [3] = biological target: T1, VIP receptor on U-87 cells (UniProt P32241 31-457, limits assumed); assay: competition with 125I-VIP for binding to U-87 cells
# T1 construct: whole, on cells; also called VIP1 receptor; VPAC1 receptor
# T1 sequence (looked up): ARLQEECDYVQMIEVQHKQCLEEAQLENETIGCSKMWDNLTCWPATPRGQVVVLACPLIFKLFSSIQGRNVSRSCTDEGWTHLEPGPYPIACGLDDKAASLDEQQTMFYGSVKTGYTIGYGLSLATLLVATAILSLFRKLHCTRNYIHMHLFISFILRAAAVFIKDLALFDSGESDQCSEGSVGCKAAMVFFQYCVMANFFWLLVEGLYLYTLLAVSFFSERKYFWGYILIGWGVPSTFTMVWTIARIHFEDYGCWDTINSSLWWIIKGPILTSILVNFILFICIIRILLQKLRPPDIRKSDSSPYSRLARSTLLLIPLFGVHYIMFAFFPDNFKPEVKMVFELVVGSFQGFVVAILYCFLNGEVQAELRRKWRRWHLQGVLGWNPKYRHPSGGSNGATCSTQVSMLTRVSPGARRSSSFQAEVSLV
IC50 [3] [nM],Molecule,reduction of the IC50 of the chemotherapeutic agent by SNH [1],nature of the combined effect with SNH [1],effect of the combination with the VIP antagonist [2],enhancement of the antiproliferative activity of the chemotherapeutic agent by the lipophilic VIP antagonist [2]
,"N.N.[Cl][Pt][Cl] [cisplatin, cis-dichlorodiammineplatinum II]",4 fold,synergistic,synergistic,
,"Cl.Nc1ccn([C@@H]2O[C@H](CO)[C@@H](O)C2(F)F)c(=O)n1 [gemcitabine, 2′-deoxy-2′,2′-difluorocytidine hydrochloride]",,only additive,,enhance the antiproliferative activity
,COc1cccc2c1C(=O)c1c(O)c3c(c(O)c1C2=O)C[C@@](O)(C(=O)CO)C[C@@H]3O[C@H]1C[C@H](N)[C@H](O)[C@H](C)O1 [doxorubicine],,less pronounced,synergistic,enhance the antiproliferative activity
,CCC1=C[C@@H]2CN(C1)Cc1c([nH]c3ccccc13)[C@@](C(=O)OC)(c1cc3c(cc1OC)N(C)[C@H]1[C@@](O)(C(=O)OC)[C@H](OC(C)=O)[C@]4(CC)C=CCN5CC[C@]31[C@@H]54)C2 [navelbine],at least 2 fold,synergistic,synergistic,enhance the antiproliferative activity
500,B1,,,,
70,KPRRPYTDNYTRLRKQMAVKKYLNSILN (ends and bridges not checked) [Neurotensis 6-11 VIP7-28 (VIPhybrid)],,,,
